ChEMBL document CHEMBL1201862, “PubChem BioAssay data set” (2004)
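Dose response: 5 concentrations. Exposure: 48 h. Format: 96-well plates. Endpoint: linear interpolation; highest concentration if not reached. At the GI50, growth is halved.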 Activity calls are given as the source filed them. No stated cut-off is given here; in the data, active = GI50 up to about 1.1 µM and inactive = higher.

Tests used:
Assay in all cases: NCI anticancer screen, dose series, 48 h
[1] = tested on: UACC-62
[2] = tested on: KM12
[3] = tested on: UACC-257
[4] = tested on: U-251
[5] = tested on: SK-MEL-2
[6] = tested on: HL-60
[7] = tested on: NCI-H522
[8] = tested on: PC-3
[9] = tested on: MDA-N
[10] = tested on: SF-268
[11] = tested on: SK-MEL-5
[12] = tested on: OVCAR-5
[13] = tested on: SR
[14] = tested on: Hs-578T
[15] = tested on: UO-31
[16] = tested on: SF-539
[17] = tested on: HT-29
[18] = tested on: MCF7
[19] = tested on: Malme-3M
[20] = tested on: OVCAR-4

Measured: GI50

O=C1NC(c2ccccc2Cl)Nc2ccccc21 (stereo not drawn)
inactive: [1] 7.14 µM | [2] 3.76 µM | [3] > 100 µM | [4] 10.4 µM | [5] 6.7 µM | [6] 2.91 µM | [7] 12.3 µM | [8] 21.4 µM | [9] 1.47 µM | [10] 59.7 µM | [11] 5.57 µM | [12] > 100 µM | [13] 4.07 µM | [14] 9.53 µM | [15] 30.7 µM | [16] 7.08 µM | [17] 6.67 µM | [18] > 65.3 µM | [19] 12.3 µM | [20] 27.5 µM

COc1cc(C(=O)NC(CCN)(c2ccccc2)c2ccccc2)cc(OC)c1OC
inactive: [1] > 31.6 µM | [2] 29.2 µM | [3] 16.8 µM | [4] 53.2 µM | [5] 63.2 µM | [6] 12.2 µM | [7] 16.6 µM | [8] > 100 µM | [9] 19.2 µM | [10] 29.1 µM | [11] 13 µM | [12] > 87.5 µM | [13] 15.6 µM | [14] > 56.2 µM | [15] 20.9 µM | [16] > 65.2 µM | [17] 16.8 µM | [18] > 31.6 µM | [19] 13.5 µM | [20] 21.2 µM

CCCCCCCCCCNC(=O)CCC(NC(=O)c1ccc(N(C)Cc2cnc3nc(N)nc(N)c3n2)cc1)C(=O)NCCCCCCCCCC (stereo not drawn)
inactive: [1] 18.9 µM | [2] 4.89 µM | [3] 7.89 µM | [4] 4.2 µM | [5] 13.6 µM | [6] 3.4 µM | [7] 4.43 µM | [8] 5.62 µM | [9] 4.47 µM | [10] 9.62 µM | [11] 3.9 µM | [12] 23.8 µM | [13] 2.94 µM | [14] 3.09 µM | [15] 74.3 µM | [16] 5.13 µM | [17] 10.5 µM | [18] 4.06 µM | [19] 12.4 µM | [20] 8.99 µM

COC(=O)CCc1ccc2c(c1)CC1(C2)Cc2ccc(CCC(=O)OC)cc2C1
inactive: [1] > 100 µM | [2] > 100 µM | [3] > 100 µM | [4] 40.1 µM | [5] > 100 µM | [6] 17.1 µM | [7] 34.5 µM | [8] > 100 µM | [9] > 100 µM | [11] 24 µM | [12] > 100 µM | [13] 29.4 µM | [14] > 100 µM | [15] > 100 µM | [16] > 100 µM | [17] 62.7 µM | [18] 48.6 µM | [19] 63.1 µM | [20] 53.3 µM

OC(NN=C1CCCC1)(C(F)(F)Cl)C(F)(F)Cl
inactive: [1] > 10 µM | [2] > 10 µM | [3] > 10 µM | [4] > 10 µM | [5] > 10 µM | [6] > 10 µM | [7] > 10 µM | [8] > 10 µM | [9] > 10 µM | [10] > 10 µM | [11] > 10 µM | [12] > 10 µM | [13] > 10 µM | [14] > 10 µM | [16] > 10 µM | [17] > 10 µM | [18] > 10 µM | [19] > 10 µM | [20] > 10 µM
